{"source": "patent US8853203B2", "about": "“Diazepinone derivatives” (Novartis AG, priority 2012, dated 2014)", "key": {"human mGluR5a receptors": {"target": "human mGluR5a receptors (Homo sapiens (Human), UniProt P41594)", "sequence (P41594 other isoform, or with tags, fused parts or gaps)": "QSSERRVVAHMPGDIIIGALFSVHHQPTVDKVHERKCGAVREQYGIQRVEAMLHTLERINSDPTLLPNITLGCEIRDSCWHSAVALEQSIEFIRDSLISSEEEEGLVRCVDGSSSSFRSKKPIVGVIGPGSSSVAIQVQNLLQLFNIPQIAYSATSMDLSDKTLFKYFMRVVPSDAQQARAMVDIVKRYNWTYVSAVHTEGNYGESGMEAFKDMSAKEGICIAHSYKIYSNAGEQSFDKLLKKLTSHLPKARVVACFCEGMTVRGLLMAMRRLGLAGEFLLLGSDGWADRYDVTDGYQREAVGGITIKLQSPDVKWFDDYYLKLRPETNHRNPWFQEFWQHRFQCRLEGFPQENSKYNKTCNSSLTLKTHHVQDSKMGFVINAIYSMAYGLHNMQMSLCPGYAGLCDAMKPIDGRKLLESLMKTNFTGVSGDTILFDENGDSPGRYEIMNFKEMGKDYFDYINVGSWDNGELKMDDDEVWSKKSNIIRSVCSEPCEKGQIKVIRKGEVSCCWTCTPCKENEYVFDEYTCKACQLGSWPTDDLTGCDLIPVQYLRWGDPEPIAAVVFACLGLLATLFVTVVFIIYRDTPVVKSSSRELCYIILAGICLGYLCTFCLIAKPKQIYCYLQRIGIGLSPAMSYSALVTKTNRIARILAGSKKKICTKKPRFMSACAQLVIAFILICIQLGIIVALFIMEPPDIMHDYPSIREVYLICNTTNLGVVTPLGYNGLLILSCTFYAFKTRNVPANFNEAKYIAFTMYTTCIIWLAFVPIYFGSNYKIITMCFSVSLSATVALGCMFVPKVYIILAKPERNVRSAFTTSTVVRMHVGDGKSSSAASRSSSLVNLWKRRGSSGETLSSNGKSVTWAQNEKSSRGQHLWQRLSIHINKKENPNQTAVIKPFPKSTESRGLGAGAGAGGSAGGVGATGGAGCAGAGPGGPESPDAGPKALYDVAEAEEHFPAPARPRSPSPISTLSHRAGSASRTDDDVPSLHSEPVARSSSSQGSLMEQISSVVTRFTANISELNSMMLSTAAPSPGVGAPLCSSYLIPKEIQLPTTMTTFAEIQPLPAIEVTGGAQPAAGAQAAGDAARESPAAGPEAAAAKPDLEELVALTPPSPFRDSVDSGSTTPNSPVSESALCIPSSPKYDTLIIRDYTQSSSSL", "assay": "inhibition of glutamate-induced elevation of intracellular calcium in L(tk-) cells expressing human mGluR5a", "assay_type": "cell-based", "conditions": "glutamate-induced intracellular calcium elevation, L(tk-) cells expressing human mGluR5a; read-out: mGluR5 IC50", "in_short": "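Compounds tested for inhibition of the glutamate-induced rise in intracellular calcium concentration in L(tk-) cells stably expressing human mGluR5a.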"}, "human mGluR1": {"target": "human mGluR1 (Homo sapiens (Human), UniProt Q13255)", "sequence (Q13255 19-1194)": "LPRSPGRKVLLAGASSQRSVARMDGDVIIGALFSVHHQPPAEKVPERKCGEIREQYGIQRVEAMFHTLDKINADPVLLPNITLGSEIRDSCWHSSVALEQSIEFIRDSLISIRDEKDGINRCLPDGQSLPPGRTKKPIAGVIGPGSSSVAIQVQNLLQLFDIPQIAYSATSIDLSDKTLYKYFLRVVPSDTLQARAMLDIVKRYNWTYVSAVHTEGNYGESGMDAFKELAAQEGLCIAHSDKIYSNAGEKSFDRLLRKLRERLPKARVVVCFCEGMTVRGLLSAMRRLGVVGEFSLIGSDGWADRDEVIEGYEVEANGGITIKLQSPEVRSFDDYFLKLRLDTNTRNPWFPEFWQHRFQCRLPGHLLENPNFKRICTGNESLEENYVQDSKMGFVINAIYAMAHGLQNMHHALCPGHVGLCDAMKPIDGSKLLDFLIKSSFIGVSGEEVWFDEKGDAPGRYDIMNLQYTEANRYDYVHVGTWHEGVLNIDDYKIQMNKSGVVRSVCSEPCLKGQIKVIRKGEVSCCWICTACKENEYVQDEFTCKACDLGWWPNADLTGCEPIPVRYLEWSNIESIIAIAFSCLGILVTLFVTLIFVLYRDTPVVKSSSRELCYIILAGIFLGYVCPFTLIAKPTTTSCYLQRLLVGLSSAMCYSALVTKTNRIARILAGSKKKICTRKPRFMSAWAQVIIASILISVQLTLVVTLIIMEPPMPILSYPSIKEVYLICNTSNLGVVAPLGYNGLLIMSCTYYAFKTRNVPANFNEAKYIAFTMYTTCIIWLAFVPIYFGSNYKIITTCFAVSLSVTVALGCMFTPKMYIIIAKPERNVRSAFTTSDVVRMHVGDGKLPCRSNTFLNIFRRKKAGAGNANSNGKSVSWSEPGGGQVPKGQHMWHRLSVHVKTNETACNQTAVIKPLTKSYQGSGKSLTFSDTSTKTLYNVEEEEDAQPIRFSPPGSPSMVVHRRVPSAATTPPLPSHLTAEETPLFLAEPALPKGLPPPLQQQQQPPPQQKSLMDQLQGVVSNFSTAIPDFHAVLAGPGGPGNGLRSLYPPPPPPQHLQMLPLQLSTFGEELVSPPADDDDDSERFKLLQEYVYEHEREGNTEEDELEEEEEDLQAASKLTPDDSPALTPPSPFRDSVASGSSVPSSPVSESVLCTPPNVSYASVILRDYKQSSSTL", "assay": "mGluR1 antagonism, L-glutamate induced intracellular calcium increase (FLIPR) in CHO cells stably expressing human mGluR1", "assay_type": "cell-based", "conditions": "L-glutamate induced intracellular calcium, CHO cells expressing human mGluR1, FLIPR"}}}
{"smiles": "CO[C@H](C)c1cn(C2=NCC(=O)N3CCc4c(C5CC5)ccc(F)c4C3=C2)cn1", "note": "[Example 99j, (R)-9-cyclopropyl-12-fluoro-2-(4-(1-methoxyethyl)-1H-imidazol-1-yl)-7,8-dihydro-[1,4]diazepino[7,1-a]isoquinolin-5(4H)-one]", "values": [{"measurement": "IC50", "setting": "human mGluR5a receptors", "result": 0.007, "unit": "µM"}, {"measurement": "IC50", "setting": "human mGluR1", "result": 3.21, "unit": "µM"}]}
{"smiles": "COCc1cn(C2=NCC(=O)N3CCc4c(cc(F)cc4C4CC4)C3=C2)cn1", "note": "[Example 99k, 9-cyclopropyl-11-fluoro-2-(4-(methoxymethyl)-1H-imidazol-1-yl)-7,8-dihydro-[1,4]diazepino[7,1-a]isoquinolin-5(4H)-one]", "values": [{"measurement": "IC50", "setting": "human mGluR5a receptors", "result": 0.003, "unit": "µM"}, {"measurement": "IC50", "setting": "human mGluR1", "result": 0.561, "unit": "µM"}]}
{"smiles": "O=C1CN=C(n2cnc(C(F)F)c2)C=C2c3cccc(C4CC4)c3CCN12", "note": "[Example 99l, 9-cyclopropyl-2-(4-(difluoromethyl)-1H-imidazol-1-yl)-7,8-dihydro-[1,4]diazepino[7,1-a]isoquinolin-5(4H)-one]", "values": [{"measurement": "IC50", "setting": "human mGluR5a receptors", "result": 0.002, "unit": "µM"}, {"measurement": "IC50", "setting": "human mGluR1", "result": 0.702, "unit": "µM"}]}
{"smiles": "O=C1CN=C(n2cnc(CF)c2)C=C2c3cccc(C4CC4)c3CCN12", "note": "[Example 99m, 9-cyclopropyl-2-(4-(fluoromethyl)-1H-imidazol-1-yl)-7,8-dihydro-[1,4]diazepino[7,1-a]isoquinolin-5(4H)-one]", "values": [{"measurement": "IC50", "setting": "human mGluR5a receptors", "result": 0.002, "unit": "µM"}, {"measurement": "IC50", "setting": "human mGluR1", "result": 0.672, "unit": "µM"}]}
{"smiles": "CO[C@H](C)c1cn(C2=NCC(=O)N3CCc4c(ccc(F)c4C4CC4)C3=C2)cn1", "note": "[Example 99n, (R)-9-cyclopropyl-10-fluoro-2-(4-(1-methoxyethyl)-1H-imidazol-1-yl)-7,8-dihydro-[1,4]diazepino[7,1-a]isoquinolin-5(4H)-one]", "values": [{"measurement": "IC50", "setting": "human mGluR5a receptors", "result": 0.006, "unit": "µM"}, {"measurement": "IC50", "setting": "human mGluR1", "result": 2.08, "unit": "µM"}]}
{"smiles": "Cc1ncn(C2=NCC(=O)N3CCc4c(ccc(F)c4-c4ccc(F)nc4)C3=C2)n1", "note": "[Example 99o, 10-fluoro-9-(6-fluoropyridin-3-yl)-2-(3-methyl-1H-1,2,4-triazol-1-yl)-7,8-dihydro-[1,4]diazepino[7,1-a]isoquinolin-5(4H)-one]", "values": [{"measurement": "IC50", "setting": "human mGluR5a receptors", "result": 0.05, "unit": "µM"}, {"measurement": "IC50", "setting": "human mGluR1", "result": "> 10", "unit": "µM"}]}
{"smiles": "COCc1ncn(C2=NCC(=O)N3CCc4c(ccc(F)c4C4CC4)C3=C2)n1", "note": "[Example 99p, 9-cyclopropyl-10-fluoro-2-(3-(methoxymethyl)-1H-1,2,4-triazol-1-yl)-7,8-dihydro-[1,4]diazepino[7,1-a]isoquinolin-5(4H)-one]", "values": [{"measurement": "IC50", "setting": "human mGluR5a receptors", "result": 0.002, "unit": "µM"}, {"measurement": "IC50", "setting": "human mGluR1", "result": 0.814, "unit": "µM"}]}
{"smiles": "O=C1CN=C(n2cnc(C3CC3)n2)C=C2c3ccc(F)c(-c4cccnc4F)c3CCN12", "note": "[Example 99q, 2-(3-cyclopropyl-1H-1,2,4-triazol-1-yl)-10-fluoro-9-(2-fluoropyridin-3-yl)-7,8-dihydro-[1,4]diazepino[7,1-a]isoquinolin-5(4H)-one]", "values": [{"measurement": "IC50", "setting": "human mGluR5a receptors", "result": 0.088, "unit": "µM"}, {"measurement": "IC50", "setting": "human mGluR1", "result": "> 6", "unit": "µM"}]}
{"smiles": "Cc1ncn(C2=NCC(=O)N3CCc4c(ccc(F)c4-c4cccnc4F)C3=C2)n1", "note": "[Example 99r, 10-fluoro-9-(2-fluoropyridin-3-yl)-2-(3-methyl-1H-1,2,4-triazol-1-yl)-7,8-dihydro-[1,4]diazepino[7,1-a]isoquinolin-5(4H)-one]", "values": [{"measurement": "IC50", "setting": "human mGluR5a receptors", "result": 0.136, "unit": "µM"}, {"measurement": "IC50", "setting": "human mGluR1", "result": "> 10", "unit": "µM"}]}
{"smiles": "Cc1cn(C2=NCC(=O)N3CCc4c(ccc(F)c4-c4cccnc4F)C3=C2)cn1", "note": "[Example 99s, 10-fluoro-9-(2-fluoropyridin-3-yl)-2-(4-methyl-1H-imidazol-1-yl)-7,8-dihydro-[1,4]diazepino[7,1-a]isoquinolin-5(4H)-one]", "values": [{"measurement": "IC50", "setting": "human mGluR5a receptors", "result": 0.153, "unit": "µM"}, {"measurement": "IC50", "setting": "human mGluR1", "result": "> 10", "unit": "µM"}]}
{"smiles": "O=C1CN=C(n2cnc(C3CC3)c2)C=C2c3cccc(-c4ccno4)c3CCN12", "note": "[Example 100, 2-(4-cyclopropyl-1H-imidazol-1-yl)-9-(isoxazol-5-yl)-7,8-dihydro-[1,4]diazepino[7,1-a]isoquinolin-5(4H)-one]", "values": [{"measurement": "IC50", "setting": "human mGluR5a receptors", "result": 0.019, "unit": "µM"}, {"measurement": "IC50", "setting": "human mGluR1", "result": 0.56, "unit": "µM"}]}
{"smiles": "COCc1cn(C2=NCC(=O)N3CCc4c(cccc4-c4cscn4)C3=C2)cn1", "note": "[Example 101, 2-(4-(methoxymethyl)-1H-imidazol-1-yl)-9-(thiazol-4-yl)-7,8-dihydro-[1,4]diazepino[7,1-a]isoquinolin-5(4H)-one]", "values": [{"measurement": "IC50", "setting": "human mGluR5a receptors", "result": 0.026, "unit": "µM"}, {"measurement": "IC50", "setting": "human mGluR1", "result": "> 10", "unit": "µM"}]}
